Experimental data as given in US10941158B2, “Pyrazole ACC inhibitors and uses thereof” (Gilead Apollo, LLC, priority 2015, dated 2021).
In brackets after ≈: the same amount, converted by molar mass. Read-outs that look alike come from different tables or passages of the source.

Key:
Botrtyis cinerea (Bc) = test: Growth inhibition assay of fungal pathogens; format: cell-based; conditions: 48 h, read-out: Concentration at 90% Inhibition Bc
In short: (§1)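 Compounds in DMSO tested at final 50, 10, 2 ppm or 2, 0.4, 0.08 ppm. Spores in 17% V8 medium, or 1.5 mm mycelial plugs in ¼ PDB for R. solani, incubated with compound. OD600 and visual ratings at 48 h versus 2% DMSO control gave percent growth inhibition.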

[1] = tested on: Fusarium virguliforme (Fv); test: Growth inhibition assay of fungal pathogens; format: cell-based; conditions: 48 h
In short: (§2)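 Liquid-culture assay in which test compounds are applied at three final concentrations (50, 10, 2 ppm or 2, 0.4, 0.08 ppm). Inoculum levels follow 48 h growth curves for each fungus. Growth is monitored by OD600 and by eye, and the 48 h values give % inhibition against DMSO.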

[2] = tested on: Collectotrichum graminicola (Cg); test: Growth inhibition assay of fungal pathogens; format: cell-based; conditions: 48 h, read-out: Concentration at 90% Inhibition Cg
In short: as §2

[3] = tested on: Phytophthora capsici (Pc); test: Growth inhibition assay of fungal pathogens; format: cell-based; conditions: for IC90: Phytophthora capsici, read-out: Concentration at 90% Inhibition Pc
In short: as §2

[4] = tested on: Fusarium moniliforme (Fm); test: Growth inhibition assay of fungal pathogens; format: cell-based; conditions: for IC90: Fusarium verticillioides, 48 h, read-out: Concentration at 90% Inhibition Fm
In short: as §1

Septoria tritici (St) = test: Growth inhibition assay of fungal pathogens; format: cell-based; conditions: for IC90: Zymoseptoria tritici, read-out: Concentration at 90% Inhibition St
In short: as §2

Rhizoctonia solani (Rs) = test: Growth inhibition assay of fungal pathogens; format: cell-based; conditions: 48 h, read-out: Concentration at 90% Inhibition Rs
In short: as §1

Diplodia maydis (Dm) = test: Growth inhibition assay of fungal pathogens; format: cell-based; conditions: Stenocarpella maydis, 48 h, read-out: Concentration at 90% Inhibition Dm
In short: as §1

fungal (fACC2) ACC2 = fungal (fACC2) ACC2 (UniProt Q00955); conditions: read-out: fACC2 IC50; fungal ACC2, ADP-Glo
fungal (fACC2) ACC2, sequence (Q00955 whole entry): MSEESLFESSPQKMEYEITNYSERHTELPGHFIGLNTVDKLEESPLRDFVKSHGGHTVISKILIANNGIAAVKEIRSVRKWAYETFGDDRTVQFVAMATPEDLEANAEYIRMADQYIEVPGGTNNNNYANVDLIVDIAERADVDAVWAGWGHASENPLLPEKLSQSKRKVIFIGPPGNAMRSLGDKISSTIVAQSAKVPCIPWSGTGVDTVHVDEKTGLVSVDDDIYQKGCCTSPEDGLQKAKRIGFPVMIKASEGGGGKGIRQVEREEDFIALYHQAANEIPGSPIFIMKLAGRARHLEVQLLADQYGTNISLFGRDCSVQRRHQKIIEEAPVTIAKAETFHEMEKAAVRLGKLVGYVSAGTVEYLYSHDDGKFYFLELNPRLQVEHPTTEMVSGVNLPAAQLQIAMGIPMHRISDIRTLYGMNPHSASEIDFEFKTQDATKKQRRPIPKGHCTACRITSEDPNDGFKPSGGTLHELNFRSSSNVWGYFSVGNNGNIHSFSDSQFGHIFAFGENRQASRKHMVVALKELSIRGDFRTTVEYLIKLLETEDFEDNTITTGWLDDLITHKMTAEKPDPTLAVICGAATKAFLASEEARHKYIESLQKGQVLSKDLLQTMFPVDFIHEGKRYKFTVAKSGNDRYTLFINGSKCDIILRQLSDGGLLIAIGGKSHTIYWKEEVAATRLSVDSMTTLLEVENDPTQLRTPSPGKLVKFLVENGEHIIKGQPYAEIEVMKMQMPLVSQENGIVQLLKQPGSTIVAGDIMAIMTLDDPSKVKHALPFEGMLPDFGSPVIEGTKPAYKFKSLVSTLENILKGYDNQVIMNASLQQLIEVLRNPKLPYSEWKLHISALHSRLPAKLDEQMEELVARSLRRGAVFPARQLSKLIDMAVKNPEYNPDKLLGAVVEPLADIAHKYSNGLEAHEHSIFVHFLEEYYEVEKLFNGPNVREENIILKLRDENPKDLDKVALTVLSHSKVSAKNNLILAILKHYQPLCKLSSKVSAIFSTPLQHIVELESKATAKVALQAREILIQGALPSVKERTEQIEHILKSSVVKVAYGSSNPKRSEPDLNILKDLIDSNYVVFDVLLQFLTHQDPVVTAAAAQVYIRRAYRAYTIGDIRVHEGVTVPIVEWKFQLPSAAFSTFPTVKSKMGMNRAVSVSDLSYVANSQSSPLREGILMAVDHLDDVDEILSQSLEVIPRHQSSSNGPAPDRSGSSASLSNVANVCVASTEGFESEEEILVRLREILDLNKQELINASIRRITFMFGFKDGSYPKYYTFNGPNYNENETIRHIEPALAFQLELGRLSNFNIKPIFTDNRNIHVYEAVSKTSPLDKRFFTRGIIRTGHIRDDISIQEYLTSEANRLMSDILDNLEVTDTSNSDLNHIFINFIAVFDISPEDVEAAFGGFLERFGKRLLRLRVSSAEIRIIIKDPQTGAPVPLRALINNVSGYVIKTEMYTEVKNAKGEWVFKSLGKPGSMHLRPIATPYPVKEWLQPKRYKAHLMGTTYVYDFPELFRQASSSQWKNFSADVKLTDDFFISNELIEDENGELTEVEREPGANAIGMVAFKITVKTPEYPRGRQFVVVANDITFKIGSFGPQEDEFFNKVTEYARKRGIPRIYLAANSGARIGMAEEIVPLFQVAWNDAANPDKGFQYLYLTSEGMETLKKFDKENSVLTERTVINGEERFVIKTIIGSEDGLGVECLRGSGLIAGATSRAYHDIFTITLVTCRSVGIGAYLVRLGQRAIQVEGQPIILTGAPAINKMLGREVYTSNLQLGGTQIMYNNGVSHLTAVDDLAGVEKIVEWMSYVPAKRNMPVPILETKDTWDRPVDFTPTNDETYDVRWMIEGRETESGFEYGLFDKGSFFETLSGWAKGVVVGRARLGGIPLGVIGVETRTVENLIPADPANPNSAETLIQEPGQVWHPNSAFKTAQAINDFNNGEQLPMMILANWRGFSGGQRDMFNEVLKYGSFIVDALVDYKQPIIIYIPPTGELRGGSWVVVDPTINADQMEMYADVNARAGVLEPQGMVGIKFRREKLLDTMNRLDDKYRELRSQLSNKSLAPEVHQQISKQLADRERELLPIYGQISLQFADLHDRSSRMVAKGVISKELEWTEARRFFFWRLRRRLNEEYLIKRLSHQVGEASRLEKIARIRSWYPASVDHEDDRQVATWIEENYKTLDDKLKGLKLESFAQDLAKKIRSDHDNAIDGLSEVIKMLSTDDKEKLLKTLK

human (hACC2) ACC2 = human (hACC2) ACC2 (Homo sapiens, UniProt O00763); test: In vitro Acetyl-CoA Carboxylase (ACC) inhibition assay (ADP-Glo), hACC2; format: biochemical
human (hACC2) ACC2, sequence (O00763 whole entry): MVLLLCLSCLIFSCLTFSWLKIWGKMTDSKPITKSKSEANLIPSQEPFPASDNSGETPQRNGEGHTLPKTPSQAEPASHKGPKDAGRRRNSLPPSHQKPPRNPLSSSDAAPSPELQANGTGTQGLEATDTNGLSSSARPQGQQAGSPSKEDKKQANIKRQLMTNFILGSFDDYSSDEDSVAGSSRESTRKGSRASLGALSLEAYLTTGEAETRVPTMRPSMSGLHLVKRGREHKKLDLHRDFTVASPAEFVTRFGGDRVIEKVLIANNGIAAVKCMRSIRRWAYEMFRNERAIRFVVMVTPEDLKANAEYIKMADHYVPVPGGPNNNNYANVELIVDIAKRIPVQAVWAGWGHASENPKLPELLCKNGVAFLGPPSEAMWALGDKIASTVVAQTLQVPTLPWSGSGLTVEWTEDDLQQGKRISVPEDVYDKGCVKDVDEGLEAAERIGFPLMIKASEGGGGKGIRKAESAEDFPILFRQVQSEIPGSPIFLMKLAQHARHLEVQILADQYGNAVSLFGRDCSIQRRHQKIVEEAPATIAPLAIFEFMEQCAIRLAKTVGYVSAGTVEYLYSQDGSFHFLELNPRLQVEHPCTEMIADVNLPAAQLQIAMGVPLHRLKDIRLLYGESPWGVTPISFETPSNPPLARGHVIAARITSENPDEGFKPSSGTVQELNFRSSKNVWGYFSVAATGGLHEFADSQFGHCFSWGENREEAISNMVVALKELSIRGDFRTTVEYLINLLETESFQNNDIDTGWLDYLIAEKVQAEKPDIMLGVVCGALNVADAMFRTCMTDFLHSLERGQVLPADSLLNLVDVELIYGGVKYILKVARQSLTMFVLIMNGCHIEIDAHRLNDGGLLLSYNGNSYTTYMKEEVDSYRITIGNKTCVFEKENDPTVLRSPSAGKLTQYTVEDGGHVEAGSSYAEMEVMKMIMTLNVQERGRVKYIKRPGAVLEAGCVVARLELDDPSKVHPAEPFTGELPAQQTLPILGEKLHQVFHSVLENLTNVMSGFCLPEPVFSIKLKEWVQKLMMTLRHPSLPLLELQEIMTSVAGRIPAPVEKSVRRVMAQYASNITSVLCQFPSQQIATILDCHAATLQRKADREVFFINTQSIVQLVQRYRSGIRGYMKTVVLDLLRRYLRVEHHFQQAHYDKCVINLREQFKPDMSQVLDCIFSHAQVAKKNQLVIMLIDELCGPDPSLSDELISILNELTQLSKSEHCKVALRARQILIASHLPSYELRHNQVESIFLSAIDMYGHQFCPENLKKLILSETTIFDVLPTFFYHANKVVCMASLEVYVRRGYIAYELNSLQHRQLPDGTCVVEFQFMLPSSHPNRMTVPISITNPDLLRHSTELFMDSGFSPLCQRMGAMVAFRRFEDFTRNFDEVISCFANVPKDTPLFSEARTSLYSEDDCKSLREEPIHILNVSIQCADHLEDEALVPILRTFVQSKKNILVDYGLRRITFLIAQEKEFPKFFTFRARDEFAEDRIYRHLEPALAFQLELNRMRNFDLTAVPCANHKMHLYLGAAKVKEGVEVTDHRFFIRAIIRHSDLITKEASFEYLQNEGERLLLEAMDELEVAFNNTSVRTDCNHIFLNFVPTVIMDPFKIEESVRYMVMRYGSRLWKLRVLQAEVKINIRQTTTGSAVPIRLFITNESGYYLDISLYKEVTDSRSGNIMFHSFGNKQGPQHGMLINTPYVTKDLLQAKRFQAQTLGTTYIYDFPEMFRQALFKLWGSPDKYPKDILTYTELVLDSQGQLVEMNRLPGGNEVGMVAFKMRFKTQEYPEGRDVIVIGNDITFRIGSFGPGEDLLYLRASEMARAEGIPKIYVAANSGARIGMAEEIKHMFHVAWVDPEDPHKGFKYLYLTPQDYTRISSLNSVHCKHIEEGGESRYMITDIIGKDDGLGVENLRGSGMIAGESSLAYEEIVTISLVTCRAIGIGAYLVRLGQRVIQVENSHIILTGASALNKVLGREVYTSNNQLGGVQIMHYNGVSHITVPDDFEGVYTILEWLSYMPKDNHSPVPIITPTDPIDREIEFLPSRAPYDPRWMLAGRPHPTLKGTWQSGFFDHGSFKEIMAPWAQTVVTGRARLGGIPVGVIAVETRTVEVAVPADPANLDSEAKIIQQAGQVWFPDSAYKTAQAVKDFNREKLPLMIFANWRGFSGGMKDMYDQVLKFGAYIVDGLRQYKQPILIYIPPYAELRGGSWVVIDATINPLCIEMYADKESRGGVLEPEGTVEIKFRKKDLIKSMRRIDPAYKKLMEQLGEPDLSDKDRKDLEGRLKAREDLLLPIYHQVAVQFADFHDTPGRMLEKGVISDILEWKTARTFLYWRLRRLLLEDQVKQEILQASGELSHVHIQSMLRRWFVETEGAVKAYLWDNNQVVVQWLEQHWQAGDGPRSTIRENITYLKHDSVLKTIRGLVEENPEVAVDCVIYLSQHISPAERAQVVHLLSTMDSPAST
Description: The detailed procedure is as follows. […] 10 μL ADP glo reagent was added. […] 20 μL kinase detection reagent was added.
“NA” stands for “not assayed.”

C. albicans ATCC 90028 = test: Anti-Fungal (Candida) Activity Assay, broth microtiter MIC; format: cell-based; conditions: read-out: MIC C. albicans ATCC 90028
In short: (§3)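 MIC by visual comparison of challenged wells with growth control, scored at 48 h. Setup: CLSI M27-A3 broth microtiter plates, RPMI 1640+MOPS medium, direct colony suspension from overnight Sabouraud agar cultures (35 °C, 24 h).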

C. krusei ATCC 6258 = test: as above; format: cell-based; conditions: Pichia kudriavzevii, read-out: MIC C. krusei ATCC 6258
In short: as §3

[5] = tested on: C. parapsilosis ATCC 22019; test: as above; format: cell-based; conditions: Lodderomyces parapsilosis, read-out: MIC C. parapsilosis ATCC 22019
In short: as §3

[6] = ATCC90028, 3 replicates, MIC recorded at 48 h
[7] = ATCC6258, 3 replicates, MIC recorded at 48 h
[8] = ATCC22019, 3 replicates, MIC recorded at 48 h
[9] = read-out: Concentration at 90% Inhibition Fv, Table 4a, 48 hours
[10] = read-out: Concentration at 90% Inhibition Fv, Table 4b, 48 hours

Row | Compound | IC90 (Botrtyis cinerea (Bc); Table 4a) [mg/L] | IC90 (Botrtyis cinerea (Bc); Table 4b) [mg/L] | IC90 ([2]; Table 4a) [mg/L] | IC90 ([2]; Table 4b) [mg/L] | Concentration at 90% Inhibition Fm ([4]; Table 4b, 48 hours) | IC90 (Rhizoctonia solani (Rs); Table 4a) [mg/L] | IC90 (Rhizoctonia solani (Rs); Table 4b) [mg/L] | IC90 (Diplodia maydis (Dm); Table 4a) [mg/L] | IC90 (Diplodia maydis (Dm); Table 4b) [mg/L] | IC50 (fungal (fACC2) ACC2) [nM] | IC50 (human (hACC2) ACC2) [nM] | MIC (C. albicans ATCC 90028; [6]) [mg/L] | MIC (C. krusei ATCC 6258; [7]) [mg/L] | IC90 [1, 10] [mg/L] | IC90 ([3]; 48 h, Table 4b) [mg/L] | IC90 [4] [mg/L] | IC90 (Septoria tritici (St); 48 h, Table 4b) [mg/L] | MIC (C. albicans ATCC 90028; ATCC90028, 48 h) [mg/L] | MIC (C. krusei ATCC 6258; ATCC6258, 48 h) [mg/L] | MIC ([5]; ATCC22019, 48 h) [mg/L] | also measured
1 | COc1ccc(F)cc1[C@H](Cn1c(=O)n(C(C)(C)C(=O)N2CCCC2)c(=O)c2c(C)c(-n3cccn3)sc21)OC(C)C [Compound I-24, (R)-1-(2-(5-fluoro-2-methoxyphenyl)-2-isopropoxyethyl)-5-methyl-3-(2-methyl-1-oxo-1-(pyrrolidin-1-yl)propan-2-yl)-6-(1H-pyrazol-1-yl)thieno[2,3-d]pyrimidine-2,4(1H,3H)-dione] | 0.4 (≈ 0.669 µM) | 0.4 (≈ 0.669 µM) | 0.4 (≈ 0.669 µM) | 0.4 (≈ 0.669 µM) | A A | 0.4 (≈ 0.669 µM) | 0.4 (≈ 0.669 µM) | 2 (≈ 3.35 µM) | 2 (≈ 3.35 µM) | 0.6 to 3 | 3 to 10 | > 4.1 | 2.1 to 4 (≈ 3.51 to 6.69 µM) | – | – | – | – | – | – | – | IC90 ([1]; Table 4a, 48 hours, read-out: Concentration at 90% Inhibition Fv): 0.4 mg/L (≈ 0.669 µM); IC90 ([1]; Table 4b, 48 hours, read-out: Concentration at 90% Inhibition Fv): 0.4 mg/L (≈ 0.669 µM); IC90 ([3]; Table 4a, 48 hours): > 50 mg/L; Concentration at 90% Inhibition Pc ([3]; Table 4b, 48 hours): D (“D” provided a compound concentration of >50 ppm at 90% inhibition of fungal pathogens); IC90 ([4]; Table 4a, 48 hours): 0.08 mg/L (≈ 0.134 µM); Concentration at 90% Inhibition St (Septoria tritici (St); Table 4b, 48 hours): D (“D” provided a compound concentration of >50 ppm at 90% inhibition of fungal pathogens); IC90 (Septoria tritici (St); Table 4a, 48 hours): > 50 mg/L; MIC [5, 8]: > 4.1 mg/L
2 | COc1ccc(F)cc1[C@H](Cn1c(=O)n(C(C)(C)C(=O)NC(C)C)c(=O)c2c(C)c(-n3cccn3)sc21)OC1CCC(=O)CC1 [Compound I-26, (R)-2-(1-(2-(5-fluoro-2-methoxyphenyl)-2-((4-oxocyclo-hexyl)oxy)ethyl)-5-methyl-2,4-dioxo-6-(1H-pyrazol-1-yl)-1,4-dihydro-thieno[2,3-d]pyrimidin-3(2H)-yl)-N-isopropyl-2-methylpropanamide] | 0.4 (≈ 0.625 µM) | 0.4 (≈ 0.625 µM) | > 50 | 10 (≈ 15.6 µM) | – | 2 (≈ 3.13 µM) | 2 (≈ 3.13 µM) | 2 (≈ 3.13 µM) | 2 (≈ 3.13 µM) | 0.6 to 3 | 3 to 10 | – | – | 2 (≈ 3.13 µM) | > 50 | 0.08 (≈ 0.125 µM) | > 50 | 1.1 to 2 (≈ 1.72 to 3.13 µM) | 0.25 to 1 (≈ 0.391 to 1.56 µM) | 1.1 to 2 (≈ 1.72 to 3.13 µM) | IC90 [1, 9]: 2 mg/L (≈ 3.13 µM); IC90 ([3]; 48 h, Table 4a): > 50 mg/L; Concentration at 90% Inhibition Fm ([4]; Table 4a, 48 hours): A A; IC90 (Septoria tritici (St); 48 h, Table 4a): > 50 mg/L
3 | COc1ccc(F)cc1[C@H](Cn1c(=O)n(C(C)(C)C(=O)NC(C)C)c(=O)c2c(C)c(-n3cccn3)sc21)OCC(C)(C)O [Compound I-41, (R)-2-(1-(2-(5-fluoro-2-methoxyphenyl)-2-(2-hydroxy-2-methylpropoxy)ethyl)-5-methyl-2,4-dioxo-6-(1H-pyrazol-1-yl)-1,4-dihydro-thieno[2,3-d]pyrimidin-3(2H)-yl)-N-isopropyl-2-methylpropanamide] | 2 (≈ 3.25 µM) | 2 (≈ 3.25 µM) | 2 (≈ 3.25 µM) | 2 (≈ 3.25 µM) | A (“A” provided a compound concentration of 0.4 ppm at 90% inhibition of fungal pathogens) | 10 (≈ 16.2 µM) | 2 (≈ 3.25 µM) | 10 (≈ 16.2 µM) | 2 (≈ 3.25 µM) | 0.6 to 3 | 3 to 10 | – | – | 0.4 (≈ 0.65 µM) | > 50 | 0.4 (≈ 0.65 µM) | 10 (≈ 16.2 µM) | > 4.1 | > 4.1 | > 4.1 | IC90 [1, 9]: 0.4 mg/L (≈ 0.65 µM); IC90 ([3]; 48 h, Table 4a): > 50 mg/L; IC90 (Septoria tritici (St); 48 h, Table 4a): > 50 mg/L
4 | COc1ccc(F)cc1[C@H](Cn1c(=O)n(C(C)(C)C(=O)NC(C)C)c(=O)c2c(C)c(-n3cccn3)sc21)OC[C@H](C)O [Compound I-38, 2-(1-((R)-2-(5-fluoro-2-methoxyphenyl)-2-((S)-2-hydroxy-propoxy)ethyl)-5-methyl-2,4-dioxo-6-(1H-pyrazol-1-yl)-1,4-dihydrothieno[2,3-d]pyrimidin-3(2H)-yl)-N-isopropyl-2-methylpropanamide] | 2 (≈ 3.32 µM) | 2 (≈ 3.32 µM) | > 50 | 10 (≈ 16.6 µM) | A (“A” provided a compound concentration of 0.4 ppm at 90% inhibition of fungal pathogens) | 10 (≈ 16.6 µM) | 2 (≈ 3.32 µM) | > 50 | 10 (≈ 16.6 µM) | 0.6 to 3 | 10 to 40 | – | – | 2 (≈ 3.32 µM) | > 50 | 0.4 (≈ 0.665 µM) | > 50 | > 4.1 | 2.1 to 4 (≈ 3.49 to 6.65 µM) | > 4.1 | IC90 [1, 9]: 2 mg/L (≈ 3.32 µM); IC90 ([3]; 48 h, Table 4a): > 50 mg/L; IC90 (Septoria tritici (St); 48 h, Table 4a): > 50 mg/L
5 | COCCO[C@@H](Cn1c(=O)n(C(C)(C)C(=O)NC2CCCCC2)c(=O)c2c(C)c(-n3cccn3)sc21)c1cc(F)ccc1OC [Compound I-46, (R)—N-cyclohexyl-2-(1-(2-(5-fluoro-2-methoxyphenyl)-2-(2-methoxyethoxy)ethyl)-5-methyl-2,4-dioxo-6-(1H-pyrazol-1-yl)-1,4-dihydrothieno[2,3-d]pyrimidin-3(2H)-yl)-2-methylpropanamide] | – | 10 (≈ 15.6 µM) | – | > 50 | – | – | > 50 | – | > 50 | 0.6 to 3 | > 40 | – | – | > 50 | > 50 | 2 (≈ 3.12 µM) | > 50 | > 4.1 | > 4.1 | > 4.1 | –
6 | COc1ccc(F)cc1[C@H](Cn1c(=O)n(C(C)C(=O)O)c(=O)c2c(C)c(-n3cccn3)sc21)OCC(C)=O (some centres unmarked) [Compound I-65] | – | – | – | – | – | – | – | – | – | 3 to 10 | 10 to 40 | > 4.1 | > 4.1 | – | – | – | – | – | – | – | MIC [5, 8]: > 4.1 mg/L
7 | Cc1c(-n2cccn2)sc2c1c(=O)n(C(C)(C)C(=O)N1CCCC1)c(=O)n2C[C@H](OC1CCOCC1)c1cc(F)ccc1OCC1COC1 [Compound I-53] | – | – | – | – | – | – | – | – | – | 0.6 to 3 | 3 to 10 | > 4.1 | 1.1 to 2 (≈ 1.58 to 2.87 µM) | – | – | – | – | – | – | – | MIC [5, 8]: 2.1 to 4 mg/L (≈ 3.02 to 5.75 µM)
